Laboratory results published in PMC3519673, “Discovery of indole tetrafluorophenoxymethylketone-based potent novel small molecule inhibitors of caspase-3” (Organic and Medicinal Chemistry Letters, 2012).
Values after ≈ are worked out from the molar mass of the structure shown. Like-named read-outs stand apart in the source and are kept apart here.

Tests used:
[1] = target: T1, Cathepsin-B (Homo sapiens, UniProt P07858); assay: Cathepsin-B counterscreen assay; type: biochemical; conditions: read-out: % inhibition at 10 µM Cathepsin-B; compound 10 µM
T1 construct: purchased Sigma-Aldrich C0150
Experimental: (§1) Screening of compounds was carried out at two different concentrations (1 and 10 μM). Selected compounds were subjected to dose response determination in semi-log concentration (serial threefold dilutions) at constant DMSO concentration of 1% with highest compound concentration at 100 μM. Counterscreening against some of proteases, permeability, and CYP450 inhibition studies was carried out for few selected compounds at 10 μM concentration.
(§2) Thrombin assay reaction mixture (100 μl) contained 140 ng of enzyme and 100 μM of substrate (Boc-Glu-Ala-Arg-AMC) in Tris–HCl buffer pH 8.5. Cathepsin-B assay buffer contained 50 mM MES, 0.01% CHAPS, 100 μM of substrate (Z-Phe-Arg-AMC HCl), and 0.1 U of enzyme. […] The enzyme activities were monitored (ex/em 355/460) as a time-course measurement of the increase in fluorescence signal from fluorescently labeled peptide substrate for 120 min at room temperature. Percent inhibition calculation was calculated using following equation:
(§3) Percent inhibition=100−[RFU in test wells/RFU in basal control wells×100]

[2] = tested on: Jurkat (human T-cell leukemia) cell line; assay: Anti-apoptotic assay using Jurkat T-cells (staurosporine-induced cell death, resazurin); type: cell-based; conditions: compound 10 µM, staurosporine 100 nM, 48 h
Experimental: The anti-apototic assay was done as described in [10]. Briefly, Jurkat (human T-cell leukemia) cell line (ATCC) was cultured in RPMI-1640 medium with L-glutamine and supplemented with 10% fetal bovine serum and antibiotic solution. Cells were grown at 37°C in 5% CO2 and 95% air environment at 100% humidity. Cells were plated in 45 μL/well of serum-free medium at 2.5 × 10^5 cells/mL and incubated for 1 h before compound addition. Compound stock solutions were diluted with growth medium and added to the cells to obtain desired concentration. One percent DMSO was used for control wells (without the addition of compounds). […] Cells were further incubated for 120 min, and the fluorescence was measured using the Wallac Victor2V plate reader (PerkinElmer Life Sciences) at 531/589 nm ex/em wavelengths. The percent protection from induced apoptosis was calculated using the following equation: […]
where ΔFl denotes the difference in resazurin fluorescence measured at point 0 and after 120-min incubation with the cells; subscripts t, s, and n are fluorescence in the presence of a test compound + staurosporine, staurosporine alone, and no staurosporine, respectively.
Protection against cellular apoptosis was determined using staurosporine as apoptotic inducer in Jurkat cells (human T-cell leukemia), as described in the ‘Methods’ section. […]

[3] = In vivo pharmacokinetic experiment in mice; conditions: mouse, plasma, male NMRI mice
Experimental: Pharmacokinetic profiling was carried out using oral and intravenous route (IV) dosing in male NMRI mice. […] The plasma samples were collected at different time points until 8 hr and were stored frozen at −80°C until analysis. Quantitative bio-analysis of the drugs in the plasma samples was done using an LC-MS/MS. Plasma samples were analyzed following protein precipitation of plasma with acetonitrile containing internal standards.
Curve fitting was performed with Prism 5.1 software (GraphPad Software Inc., San Diego, CA) using built-in equation describing corresponding data models. All the other data were mentioned as mean ± standard deviation of triplicates values. PK parameters were determined using WinNonlin 5.2 software.
Compounds were administered to male NMRI mice either as 1 mg/kg intravenous bolus in 1% (v/v) DMA, 10% (w/v) HP-b-CD in normal saline, or orally by gavage at 5 mg/kg in 1% (v/v) DMA, 1% (w/v) Poloxamer 147, and 10% (w/v) HP-b-CD in saline.

[4] = Kinetic aqueous solubility (shake flask, 96-well); type: physicochemical; conditions: pH 7.4, aqueous buffer, kinetic from dmso stock
Experimental: After 16 h of incubation, the supernatant was subjected for analysis.

[5] = target: T2, Thrombin (Homo sapiens, UniProt P00734); assay: Thrombin counterscreen assay; type: biochemical; conditions: read-out: % inhibition at 10 µM Thrombin; compound 10 µM
T2 construct: purchased Enzyme Research Laboratories HT1002a
Experimental: as §1, §2, §3

[6] = target: T3, caspase-1 (Homo sapiens, UniProt P29466); assay: Caspase-1 counterscreen assay; type: biochemical; conditions: read-out: % inhibition at 10 µM Caspase-1; compound 10 µM
T3 construct: purchased Enzo Life Sciences, Inc. BML-AK701
T3 sequence (P29466 120-297 limits assumed): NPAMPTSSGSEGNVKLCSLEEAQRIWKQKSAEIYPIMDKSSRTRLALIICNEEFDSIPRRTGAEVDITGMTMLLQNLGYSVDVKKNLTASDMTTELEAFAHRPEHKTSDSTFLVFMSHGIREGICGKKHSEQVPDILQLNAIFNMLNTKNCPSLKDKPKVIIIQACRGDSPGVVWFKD
T3 sequence (P29466 317-404 limits assumed): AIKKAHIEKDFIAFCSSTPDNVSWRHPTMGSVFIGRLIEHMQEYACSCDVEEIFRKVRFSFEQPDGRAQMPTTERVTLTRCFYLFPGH
Experimental: as §1
The ability of NCEs to inhibit the activity of human recombinant caspases as well as other proteases was determined using a standard fluorometric microplate assay as described in [1, 10]. The assay buffer contained 25 mM sodium HEPES, 50 mM KCl, 0.1% CHAPS, and 1 mM β-mercaptoethanol, pH7.4. To a reaction mixture (100 μL) containing the above buffer, 10 μM AC-DEVD-AMC and 10 U caspase-3 were added in a black 96-well microplate. Activities of the other caspases were determined similarly using the corresponding fluorogenic substrates: 50 U of caspase-1 and 10 μM N-acetyl-Tyr-Val-Ala-Asp-7-amido-4-methylcoumarin.
as §3

[7] = target: T4, caspase-3 (Homo sapiens, UniProt P42574); assay: Caspase-3 fluorometric inhibition assay (AC-DEVD-AMC substrate); type: biochemical; conditions: 10 µM AC-DEVD-AMC, 10 U caspase-3
T4 construct: purchased Sigma-Aldrich C1224
T4 sequence (P42574 29-175 limits assumed): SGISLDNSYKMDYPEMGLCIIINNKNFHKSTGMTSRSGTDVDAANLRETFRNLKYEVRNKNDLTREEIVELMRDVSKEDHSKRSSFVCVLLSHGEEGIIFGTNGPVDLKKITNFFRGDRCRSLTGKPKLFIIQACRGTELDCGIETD
T4 sequence (P42574 176-277 limits assumed): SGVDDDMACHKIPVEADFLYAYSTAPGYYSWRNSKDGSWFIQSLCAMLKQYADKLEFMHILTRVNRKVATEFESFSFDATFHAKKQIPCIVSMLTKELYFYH
Experimental: Fluorescence measurements were done using VICTOR2V 96/384 multilabel plate reader (PerkinElmer Life Sciences, MA, USA) at λex = 360 nm and λem = 460 nm top readout (ex, excitation; em, emission) in Corning black 96-well flat bottom plates. The enzyme activity was measured at 30°C after 30 min. Trans-epithelial resistance (TEER) measurements (for monolayer integrity) were made using instrument from World Precision Instrument (Florida, USA). HPLC (1100 series, Agilent Technologies Inc., CA, USA) was performed on reverse phase column (Zorbax Eclipse XDB C18, 150 × 4.6 mm, 5 μm). LC-MS/MS was performed in multiple reaction monitoring mode using Applied Biosystems API 3200 (Chromos, Singapore) coupled to Agilent Technologies 1100 series HPLC on a reverse phase column (Zorbax Eclipse XDB C18, 50 × 4.6 mm, 5 μm).
Screening of compounds was carried out at two different concentrations (1 and 10 μM). […]
The ability of NCEs to inhibit the activity of human recombinant caspases as well as other proteases was determined using a standard fluorometric microplate assay as described in [1, 10]. […] Activities of the other caspases were determined similarly using the corresponding fluorogenic substrates: 50 U of caspase-1 and 10 μM N-acetyl-Tyr-Val-Ala-Asp-7-amido-4-methylcoumarin. […]

[8] = Microsomal stability; type: in vitro ADME; conditions: mouse liver microsomes, 1 µM, NADPH and UDPGA
Experimental: Mouse liver microsomes (in-house prepared) and pooled human liver microsomes (BD Gentest, CA, USA) were incubated with 1-μM test compounds at 37°C for 15 and 60 min using NADPH and UDPGA as co-factors. The reaction was stopped by the addition of cold acetonitrile, precipitated protein was removed, and the supernatants were analyzed.

Q: What does the source list for `C[C@H](NC(=O)C(=O)Nc1ccccc1C(C)(C)C)C(=O)N[C@@H](CC(=O)O)C(=O)COc1c(F)c(F)cc(F)c1F` [IDN6556]?
A: inhibition at 10 µM [1]: 0%; % protection against staurosporine-induced cell death [2]: 73%; Vd ([3]; 1 mg/kg IV): 11.8 L/kg; clearance ([3]; 1 mg/kg IV): 150 mL/min/kg; k el ([3]; 1 mg/kg IV, 5 mg/kg PO): 0.000194 s⁻¹; half-life ([3]; 1 mg/kg IV, 5 mg/kg PO, read-out: Beta t1/2 (converted)): 54 min; AUC(0-inf) ([3]; 1 mg/kg IV, read-out: AUC (0-inf) iv): 111 ng·h/mL; Cmax ([3]; 5 mg/kg PO): 113 ng/mL; Tmax ([3]; 5 mg/kg PO): 30 min; bioavailability ([3]; 5 mg/kg PO vs 1 mg/kg IV, read-out: F (oral bioavailability)): 17.9%; AUC(0-inf) ([3]; 5 mg/kg PO, read-out: AUC (0-inf) po): 99.1 ng·h/mL; solubility at 16 h [4]: 145 µM (≈ 82.6 µg/mL); inhibition at 10 µM [5]: 7%; inhibition at 10 µM [6]: 59%; IC50 [7]: 35 nM; % stable at 60 min MLM [8]: 61%
